# From patent US12527778B2, “Enantiomers of a series of antiviral compounds” (Innovative Molecules GmbH, priority 2017, dated 2026)
# Assay: aqueous solubility (PBS, pH 7.4), shake flask
# Format: physicochemical
# Method: The aqueous solubility (PBS, pH 7.4) was determined at Eurofins, Cerep, Panlabs according to C. A. Lipinski et al. Adv. Drug Del. Rev. 1997:46, 3.
# Measurement of the aqueous solubility was performed according to Lipinski, C. A. et al. Adv. Drug Del. Rev. 1997:46, 3. The relevant information from the literature is described below.
# In addition, chromatographic purity (%) was defined as the peak area of the principal peak relative to the total integrated peak area in the HPLC chromatogram of the calibration standard.
structure (smiles),measurement,value
"Cc1nc(N(C)C(=O)Cc2ccc(-c3cc(F)ccc3F)cc2)sc1S(C)(=N)=O (racemic) [Example 7, 2-(2′,5′-Difluoro-[1,1′-biphenyl]-4-yl)-N-methyl-N-(4-methyl-5-(S-methylsulfonimidoyl)thiazol-2-yl)acetamide]",solubility in comparison to Example 87 (WO2001/047904),significantly increased solubility (at least one order of magnitude)
